Laboratory results published in patent US20240058344A1, “METHODS OF TREATING NEURODEGENERATIVE DISORDERS AND STAT3-LINKED CANCERS USING SUPPRESSORS OF ELECTRON LEAK” (Cornell University, priority 2020, published 2024).

Legend:
[1] = tested on: astrocytic H2O2 production; experiment: Released H2O2 from primary astrocytes (Amplex UltraRed); assay type: cell-based, mice; settings: S3QEL2 20 μM, S3QEL1.2 1 μM, approximately 24 h
Method: (FIG. 17A) Astrocytes isolated from P2-P3 mice were treated with A1 cocktail consisting of 30 ng/ml TNF-α, 3 ng/ml IL-1α, and 400 ng/ml Clq, and S3QEL1.2 (3 μM) or vehicle for approximately 6 h and analyzed by Western blotting. Phospho-STAT3 levels were normalized to total STAT3 per sample. n=6 wells per condition. **p<0.01, ***p<0.001, one-way ANOVA with Dunnett's multiple comparisons test. (FIG. 17B) Astrocytes isolated from P2-P3 mice were treated with A1 cocktail consisting of 30 ng/ml TNF-α, 3 ng/ml IL-1α, and 400 ng/ml Clq for 24 h, and analyzed for levels of released H2O2 using Amplex UltraRed, a fluorogenic substrate that is a highly sensitive indicator of H2O2, in the presence of horseradish peroxidase and superoxide dismutase. n=6 wells per condition. *p=0.01, Student's t test. (FIG. 17C) Astrocytes isolated from P2-P3 mice were treated with vehicle or 3 ng/ml IL-1α and either S3QEL2 (20 μM), S3QEL1.2 (1 μM), or vehicle for approximately 24 h, and analyzed for levels of released H2O2 using Amplex UltraRed. n=6 wells per condition. *p<0.05, **p<0.01, ***p<0.001, two-way ANOVA with Bonferroni's multiple comparisons test. […]

primary neurons = experiment: Tau-associated neuronal damage in primary neurons cultured alone (AAV-TauP301S, MAP2/NeuN immunostaining); assay type: cell-based, mouse; settings: 10 μM; AAV human P301S tau
Method: Primary neurons were immunostained for MAP2 or NeuN following mock treatment or transduction with AAV encoding human P301S mutant tau under the synapsin-1 promoter. Neurons were cultured without (FIGS. 9A-9B) or with (FIGS. 9C-9D) primary mouse microglia. S3QEL2 (S3, 10 μM). n=4 per condition.
(§1) To begin dissecting the mechanisms by which S3QEL2 affects neural cell function and disease-linked processes, studies in primary cultures were conducted. Isolated mouse-derived neurons were transduced with adeno-associated viral vectors (AAVs) encoding wild-type or the P301S mutant form of the human tau protein (FIG. 8A). […] However, S3QEL reduced neuronal damage in the presence of astrocytes (approx. 30% astrocytes, FIG. 10A). Tau can also promote aberrant neuronal activity and hypersynchrony. S3QEL reduced aberrant neuronal firing in tau-transduced neurons co-cultured with astrocytes (FIGS. 10B-10C).

lipocalin-2 = experiment: Lipocalin-2 protein released by primary astrocytes (ELISA); assay type: cell-based, mice; settings: A1 cocktail, 60 μM, approximately 24 h
Method: Astrocytes isolated from P2-P3 mice were treated with A1 cocktail consisting of 30 ng/mL TNF-α, 3 ng/mL IL-1α, and 400 ng/mL Clq, and S3QEL2 (S3, 60 μM) or vehicle (Con) for approximately 24 h. Levels of astrocytic lipocalin-2 protein released into the culture media were analyzed by ELISA. n=4 wells per condition. **p<0.01, ***p<0.001, one-way ANOVA with Dunnett's multiple comparisons test.

[2] = tested on: GFAP; phospho-serine 202/205 tau; experiment: Immunofluorescent staining of GFAP and phospho-serine 202/205 tau (AT8) in hTauP301S mice; assay type: in vivo; settings: 6 weeks oral dosing
From the text: Immunofluorescent staining and quantification of astrocytic marker GFAP (red, FIG. 4A) and phospho-serine 202/205 tau (AT8, green, FIG. 4B) in male nontransgenic (NTG) and hTauP301S mice after 6 weeks of oral dosing with S3QEL2 or vehicle. (FIGS. 4C-4E) n=12-16 mice per group; *p<0.05, **p<0.01, ***p<0.001, ANOVA with Bonferroni's test.
As assessed by immunolabeling, hTauP301S mice treated with S3QEL2 also had reduced levels of glial fibrillary acidic protein (GFAP)-positive astrogliosis and phosphorylated tau (FIG. 7). Western blotting confirmed reduced levels of phosphorylated but not total tau in these mice (FIG. 5).

[3] = tested on: astrocytic-neuronal co-cultures; experiment: Neuronal damage (NeuN) and neuronal firing (MEA) in astrocytic-neuronal co-cultures with AAV-TauP301S; assay type: cell-based, mouse; settings: 1 μM
Method: (FIG. 10A) Co-cultures were immunostained for NeuN following transduction with AAV encoding human P301S mutant tau. Vehicle (Veh) or S3QEL2 (S3, 1μM) was added on day 8 in vitro and cells were analyzed on day 14. (FIG. 10B) Example traces recorded using multi-electrode array (MEA). Spikes (black) and network bursts (pink boxes). Top traces show population activities. (FIG. 10C) Average neuronal firing (% of baseline) in co-cultures. Mock treatment (control) or AAV-TauP301S with or without S3QEL2 (S3, 1μM) were added on day 6. n=4 wells per condition, *p<0.05, ANOVA with Bonferroni's test.
as §1

For CCCN(CCC)c1ncnc2c1cnn2-c1ccc(C)c(C)c1 [S3QEL2], the “Increases in astrocytic H2O2 levels induced by IL-1α” value ([1]; IL-1α 3 ng/ml) was “suppressed the increases”, the “Baseline astrocytic H2O2 levels” value ([1]; vehicle) was “minimal effects” and the “Tau-associated neuronal damage, neurons cultured alone” value (primary neurons) was “did not affect tau-associated neuronal damage”. For the same molecule, the “Release of lipocalin-2 protein into culture media” value (lipocalin-2) was “inhibited the release of lipocalin-2”, the “GFAP-positive astrogliosis (immunolabeling)” value [2] was “reduced” and the “Phosphorylated tau (AT8 immunolabeling)” value [2] was “reduced”. For the same molecule, the “Aberrant increases in neuronal firing (MEA) in astrocytic-neuronal co-cultures” value ([3]; added day 6) was “prevented” and the “Neuronal damage (NeuN) in astrocytic-neuronal co-cultures” value ([3]; added day 8, analyzed day 14) was “prevented neuronal damage”.
